{
  "source": "patent US7264956B2",
  "about": "“Compounds and methods for inhibiting axillary malodour” (Givaudan SA, priority 2001, dated 2007)",
  "key": {"[1]": {"target": "T1, enzyme extracted from Corynebacterium striatum A×20 (AMRE, Nα-acyl-glutamine-aminoacylase) (Corynebacterium striatum, UniProt Q8GGD4)", "T1 construct": "an enzyme may be isolated from cellular extracts obtained from wild-type bacterial strains; endogenous in cells; host or cells: Corynebacterium striatum Ax20 (DSM 14267), mechanically disrupted; crude extract or chromatographically purified enzyme", "T1 sequence (Q8GGD4 2-400)": "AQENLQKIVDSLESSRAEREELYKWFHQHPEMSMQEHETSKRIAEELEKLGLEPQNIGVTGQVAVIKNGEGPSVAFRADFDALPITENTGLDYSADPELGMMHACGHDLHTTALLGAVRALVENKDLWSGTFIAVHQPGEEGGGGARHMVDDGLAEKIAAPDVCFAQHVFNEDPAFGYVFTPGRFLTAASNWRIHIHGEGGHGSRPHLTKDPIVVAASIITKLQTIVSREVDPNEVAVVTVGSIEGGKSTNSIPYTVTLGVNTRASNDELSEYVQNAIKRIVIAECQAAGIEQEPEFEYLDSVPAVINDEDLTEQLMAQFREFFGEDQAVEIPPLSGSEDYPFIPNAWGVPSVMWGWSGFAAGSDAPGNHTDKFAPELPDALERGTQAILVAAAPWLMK", "test": "Substrate specificity of the enzyme (capillary GC of released acid or alcohol)", "type": "biochemical", "details": "500 ppm in Buffer A, 24 h incubation", "description": "To understand in detail the structural requirements of substrates, the enzyme extracted from Corynebacterium striatum A×20 was incubated with a wide variety of said compounds related to the originally isolated Nα-3-methyl-3-hydroxy-hexanoyl-L-glutamine present in sweat. Each compound was used at a concentration of 500 ppm in Buffer A, and analysis of released acid or alcohol was done by capillary GC after 24 h of incubation. First, different modifications at the N-terminus were tested."}, "[2]": {"system": "Corynebacterium bovis", "test": "Cleavage of the natural malodour precursor by axilla isolate Ax3", "type": "cell-based", "details": "500 ppm precursor, 24 h, 36° C., capillary GC", "description": "(§1) The axillary flora of 8 panellists was isolated with the detergent-scrub method: A 6 cm^2 area of the axilla was scrubbed with a phosphate buffer at pH 7 containing 1% Tween 80. The samples were spread-plated on tryptic soy agar amended with 5 g/L of Tween 80 and 1 g/L of lecithin. Single isolates obtained after 48 h incubation were subcultured and characterised. A total of 24 individual strains were identified based on colony and cell morphology, gram-reaction, lipophilic growth, lipase reaction and API identification kits (bioMerieux, France; coryneforms with the API coryne kit and cocci with the ID Staph 32 kit). The strains were grown overnight in a liquid medium (Mueller-Hinton amended with 0.01% Tween 80), harvested by centrifugation and resuspended to a final OD600 of 1 in a semi-synthetic medium (Per litre: 3 g KH2PO4, 1.9 g K2HPO4, 0.2 g yeast extract, 0.2 g MgSO4, 1.4 g NaCl, 1 g NH4Cl, 10 mg MnCl2, 1 mg Fe3Cl2, 1 mg CaCl2). Aliquots of this stationary culture were then amended with a final concentration of 500 ppm of Nα-3-hydroxy-3-methyl-hexanoyl-L-glutamine (5% stock solution dissolved in methanol). After 24 h incubation (with shaking at 300 rpm; 36° C.) the samples were extracted and the amount of released 3-hydroxy-3-methyl-hexanoic acid was determined by capillary GC. […]"}, "[3]": {"system": "Corynebacterium striatum", "test": "Cleavage of the natural malodour precursor by axilla isolate Ax20", "type": "cell-based", "details": "500 ppm precursor, 24 h, 36° C., capillary GC", "description": "as §1"}, "[4]": {"system": "Corynebacterium jeikeium", "test": "Cleavage of the natural malodour precursor by axilla isolate Ax19", "type": "cell-based", "details": "500 ppm precursor, 24 h, 36° C., capillary GC", "description": "as §1"}, "[5]": {"system": "Micrococcus luteus", "test": "Cleavage of the natural malodour precursor by axilla isolate Ax9", "type": "cell-based", "details": "500 ppm precursor, 24 h, 36° C., capillary GC", "description": "as §1"}, "[6]": {"system": "Corynebacterium jeikeium", "test": "Cleavage of the natural malodour precursor by axilla isolate Ax15", "type": "cell-based", "details": "500 ppm precursor, 24 h, 36° C., capillary GC", "description": "as §1"}, "[7]": {"system": "Staphylococcus capitis", "test": "Cleavage of the natural malodour precursor by axilla isolate Ax1", "type": "cell-based", "details": "500 ppm precursor, 24 h, 36° C., capillary GC", "description": "as §1"}, "[8]": {"system": "Staphylococcus epidermidis", "test": "Cleavage of the natural malodour precursor by axilla isolate Ax6", "type": "cell-based", "details": "500 ppm precursor, 24 h, 36° C., capillary GC", "description": "as §1"}, "[9]": {"system": "Corynebacterium group G", "test": "Cleavage of the natural malodour precursor by axilla isolate Ax7", "type": "cell-based", "details": "500 ppm precursor, 24 h, 36° C., capillary GC", "description": "as §1"}},
  "data": [
    {"smiles": "CCCC(C)(O)CC(=O)N[C@@H](CCC(N)=O)C(=O)O", "note": "(stereo partly drawn) [compound 1, Nα-(3-hydroxy-3-methyl-hexanoyl)-L-glutamine]", "values": [
      {"measurement": "Cleavage by enzyme", "setting": "[1]", "result": "++ (++ cleavage 10–50%)"},
      {"measurement": "3-hydroxy-3-methyl-hexanoic acid released", "setting": "[2]", "result": 0, "unit": "ppm"},
      {"measurement": "3-hydroxy-3-methyl-hexanoic acid released", "setting": "[3]", "result": 262.7, "unit": "ppm"},
      {"measurement": "3-hydroxy-3-methyl-hexanoic acid released", "setting": "[4]", "result": 105.1, "unit": "ppm"},
      {"measurement": "3-hydroxy-3-methyl-hexanoic acid released", "setting": "[5]", "result": 0, "unit": "ppm"},
      {"measurement": "3-hydroxy-3-methyl-hexanoic acid released", "setting": "[6]", "result": 37.4, "unit": "ppm"},
      {"measurement": "3-hydroxy-3-methyl-hexanoic acid released", "setting": "[7]", "result": 0, "unit": "ppm"},
      {"measurement": "3-hydroxy-3-methyl-hexanoic acid released", "setting": "[8]", "result": 0, "unit": "ppm"},
      {"measurement": "3-hydroxy-3-methyl-hexanoic acid released", "setting": "[9]", "result": 0, "unit": "ppm"}
    ]}
  ]
}
